According to patent US12084430B2, “Tricyclic urea compounds as JAK2 V617F inhibitors” (Incyte Corporation, priority 2022, dated 2024):
Read-outs that look alike come from different tables or passages of the source.

Tests used:
KIT [1] = molecular target: KIT (Homo sapiens, UniProt P10721); test: KIT enzymatic assay; type: biochemical; conditions: 1 mM ATP
How it was run: (§1)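 0.12 nM KIT with 1 mM ATP and 500 nM biotinylated TK substrate in 50 mM HEPES pH 7.0, 10 mM MgCl2, 1 mM DTT, 0.1 mM orthovanadate, 0.5% DMSO; 60 min at room temperature. TR-FRET 665/620 nm ratio; IC50 fitted from percent control activity versus log concentration.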

KIT [2] = test: KIT enzymatic assay; type: biochemical
How it was run: as §1

FLT3 = FLT3 enzymatic assay; type: biochemical
How it was run: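 Kinase reaction at room temperature in HEPES 50 mM pH 7.0 with 10 mM MgCl2, 1 mM DTT: 0.011 nM FLT3, 1 mM ATP, 500 nM biotinylated TK substrate, 0.5% DMSO. After 60 min, HTRF read as 665/620 nm ratio; IC50 from fit of percent control activity versus log concentration.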

[3] = molecular target: T1, catalytic domain (JH1, amino acids 826-1132) of human JAK2 (Homo sapiens, UniProt O60674); test: JAK2 LanthaScreen JH1 binding assay; conditions: read-out: JH1 Bind IC50
T1 construct: catalytic domain (JH1, amino acids 826-1132) of human JAK2; FLAG (N); biotin (biotinylated); purchased Carna Biosciences 08-445-20N; host or cells: baculovirus expression system
How it was run: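 Binding of compounds to biotinylated, FLAG-tagged human JAK2 JH1 (aa 826-1132; 1.5 nM) was measured by LanthaScreen TR-FRET with 50 nM fluorescent tracer and 0.5 nM streptavidin-Tb, in pH 7.5 Tris buffer. Non-specific binding was defined with 2 mM ATP. After 2 h at 25 °C, IC50 was fitted from four-parameter dose-response curves.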

[4] = test system: pSTAT5 signaling in SET-2 cells in whole blood; test: pSTAT5 SET-2 whole blood MSD assay; type: cell-based; conditions: Homo sapiens, pSTAT5, 2 hour, read-out: SET2 WB IC50
How it was run: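 SET-2 cells seeded overnight on retronectin-coated wells, then exposed 2 h at 37 °C to compound (20 μM top, 2.5-fold down to 0.21 nM) in serum-free RPMI plus whole blood. After washing and lysis, pSTAT5 measured by MSD electrochemiluminescence; values from 4-parameter fit, reported as mean±SD.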

T1 sequence (O60674 826-1132): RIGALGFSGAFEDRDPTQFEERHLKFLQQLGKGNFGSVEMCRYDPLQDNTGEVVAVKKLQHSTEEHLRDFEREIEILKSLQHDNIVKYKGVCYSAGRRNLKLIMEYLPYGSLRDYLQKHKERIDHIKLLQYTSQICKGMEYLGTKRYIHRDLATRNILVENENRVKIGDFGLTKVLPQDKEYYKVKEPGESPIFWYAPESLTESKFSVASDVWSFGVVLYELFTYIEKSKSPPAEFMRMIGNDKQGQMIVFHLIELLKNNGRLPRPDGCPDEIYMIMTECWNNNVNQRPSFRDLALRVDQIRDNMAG
Sequence of KIT (Homo sapiens, UniProt P10721) (P10721 26-976, species assumed): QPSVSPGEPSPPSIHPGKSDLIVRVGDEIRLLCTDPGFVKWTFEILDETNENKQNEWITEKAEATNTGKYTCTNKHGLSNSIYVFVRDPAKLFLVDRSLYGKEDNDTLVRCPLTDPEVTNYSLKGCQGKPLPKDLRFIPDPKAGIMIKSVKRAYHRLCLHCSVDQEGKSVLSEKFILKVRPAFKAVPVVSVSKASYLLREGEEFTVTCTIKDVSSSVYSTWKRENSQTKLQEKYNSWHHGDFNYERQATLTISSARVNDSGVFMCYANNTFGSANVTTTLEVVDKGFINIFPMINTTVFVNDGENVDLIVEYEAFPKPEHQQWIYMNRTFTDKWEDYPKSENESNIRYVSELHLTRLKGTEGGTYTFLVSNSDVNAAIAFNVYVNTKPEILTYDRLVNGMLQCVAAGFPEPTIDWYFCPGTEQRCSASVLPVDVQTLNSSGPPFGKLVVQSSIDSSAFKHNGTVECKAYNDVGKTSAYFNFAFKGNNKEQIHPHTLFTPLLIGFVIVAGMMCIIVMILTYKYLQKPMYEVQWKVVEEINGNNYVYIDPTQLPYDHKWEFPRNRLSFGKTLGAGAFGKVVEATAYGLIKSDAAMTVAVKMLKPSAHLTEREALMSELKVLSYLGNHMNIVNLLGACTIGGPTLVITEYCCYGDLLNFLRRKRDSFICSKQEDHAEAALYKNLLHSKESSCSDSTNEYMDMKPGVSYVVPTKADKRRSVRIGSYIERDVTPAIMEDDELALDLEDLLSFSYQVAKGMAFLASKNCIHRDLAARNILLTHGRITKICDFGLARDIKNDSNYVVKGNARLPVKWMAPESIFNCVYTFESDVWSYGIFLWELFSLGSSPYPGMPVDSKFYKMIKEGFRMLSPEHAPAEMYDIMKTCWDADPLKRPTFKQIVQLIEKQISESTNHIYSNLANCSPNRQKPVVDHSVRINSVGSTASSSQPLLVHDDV

Q: Which IC50 (KIT [1]) does the source give for `[2H]C([2H])([2H])Oc1ccc(-c2c(-c3cn(C([2H])([2H])[2H])nc3F)[nH]c3ncc4c(c23)n([C@@H]2CC[C@@H](NC(=O)OC)C2)c(=O)n4C([2H])([2H])[2H])cc1` [Example 9, Methyl ((1R,3R)-3-(7-(3-fluoro-1-(methyl-d3)-1H-pyrazol-4-yl)-8-(4-(methoxy-d3)phenyl)-3-(methyl-d3)-2-oxo-3,6-dihydroimidazo[4,5-d]pyrrolo[2,3-b]pyridin-1(2H)-yl)cyclopentyl)carbamate] here?
A: Its IC50 is 0.25 to 1.25 µM.

Q: What about the “Selectivity KIT/JH2 V617F” value (KIT [2]) of the same compound?
A: Its value is “*** (selectivity of >1500-fold to ≤1750-fold)”.

Q: What about the “Selectivity FLT3/JH2 V617F” value (FLT3) of the same compound?
A: Its value is “***** (selectivity of >5000-fold to ≤12500-fold)”.

Q: And the IC50 ([3]; Table A)?
A: The IC50 was over 1 µM.

Q: What about the IC50 ([3]; Table C) of the same compound?
A: The IC50 was over 1 µM.

Q: What about the IC50 [4] of the same compound?
A: Its IC50 is 2.5 to 5 µM.
